From US20180193350A1, “TREATMENT OF NUT MIDLINE CARCINOMA” (Tensha Therapeutics, Inc., priority 2015, published 2018)

What was measured:
[1] = tested on: CD11b on CD14+ monocytes; assay: CD11b expression levels on CD14+ monocytes in patients treated with TEN-010 (flow cytometry, MESF); type: in vivo, human
From the text: Patients aged 18 years or older with histologically confirmed advanced solid tumors with progressive disease requiring therapy were enrolled in the study. In particular, patients with histologically confirmed advanced solid malignancy with progressive disease, NMC, or advanced aggressive diffuse large B cell lymphoma (DLBCL) were enrolled in the study. Patients with hemotologic malignancies were not enrolled in the study. TEN-010 was formulated as a sterile, preserved isotonic solution for subcutaneous (SC) administration. A dose of 0.45 mg/kg was administered on Days 1 through 21 (“ON segment”) of each cycle without interruption, followed by a 7-day dose-free interval (“OFF segment”) in a 28-day treatment cycle. Injections were rotated amongst several sites including bilateral upper arms and thighs and mid and lower abdomen and buttocks. Whole blood specimens were collected at specified time points (e.g., see FIG. 1) in sodium heparin vacutainers. Briefly, two 12×75 mm test tubes per donor were labeled with specimen ID and appropriate cocktail name (see Table 2 below). 100 μl of sodium heparin anticoagulated whole blood was pipetted into the test tubes. The appropriate titrated volume of antibody cocktails was pipetted into the correspondingly labeled tubes. The appropriate titrated amount of CD14 PerCP, was added to all tubes to identify CD14 positive monocytes. The tubes were vortexed and were allowed to incubate for 30 minutes at room temperature in the dark. The red blood cells were lysed by adding 4 ml of an ammonium chloride-based whole blood lysing reagent to each tube. The tubes were capped and inverted to mix well prior to incubating in the dark at room temperature for 5 minutes. After the incubation, the tubes were centrifuged at 400 RCF for 5 minutes, the supernatant decanted and the tubes rack-raked to disperse cell pellet. The cells were washed with 2 ml of PBS with 1% BSA and centrifuged. To detect biotin conjugated CD45 RO antibody, the appropriate titrated amount of SA-BV605 (streptavidin (SA) conjugated to brilliant violet (BV) 605) was added to each tube and tubes were vortexed. After a 20 minute incubation in the dark at room temperature, the cells were washed with 2 ml of PBS with 1% BSA and centrifuged. The supernatant was decanted and the cells were rack-raked to disperse the cell pellet. Each tube received 500 μl of 1% paraformaldehyde and stored at 2-8 C until acquisition on the day of preparation. The tubes were acquired on a Becton Dickinson (BD) FACSCanto™ II flow cytometer with appropriate instrument settings, acquiring approximately 250,000 total events per tube. All analyses for flow cytometry were performed on WinList 7.0 (Verity Software House, Topsham, Me.) with a direct data exchange link to Microsoft® Excel 2003 or equivalent. For FIG. 1, baseline value (pre-dose at cycle 1, day 1, i.e., C1D1) was set at an arbitrary MESF value (e.g., 100) for each patient; all subsequent values obtained from the study were normalized to the baseline value. For FIG. 2, unnormalized MESF values are shown.

[2] = tested on: lactate dehydrogenase (LDH); assay: LDH levels in patients treated with TEN-010; type: in vivo, human; settings: non-NMC patient 002-021 (FIG. 2B), despite significant rise in CD11b levels
From the text: Patients aged 18 years or older with histologically confirmed advanced solid tumors with progressive disease requiring therapy were enrolled in the study. In particular, patients with histologically confirmed advanced solid malignancy with progressive disease, NMC, or advanced aggressive diffuse large B cell lymphoma (DLBCL) were enrolled in the study. Patients with hemotologic malignancies were not enrolled in the study.
TEN-010 was formulated as a sterile, preserved isotonic solution for subcutaneous (SC) administration. A dose of 0.45 mg/kg was administered on Days 1 through 21 (“ON segment”) of each cycle without interruption, followed by a 7-day dose-free interval (“OFF segment”) in a 28-day treatment cycle. Injections were rotated amongst several sites including bilateral upper arms and thighs and mid and lower abdomen and buttocks.
LDH levels were measured using standard protocols, using a chemistry analyzer, e.g., Beckman Coulter. See, e.g., Lactate OSR6193 procedure published March 2012 (webcache.googleuserconent.com/search?q=cache:iyYi7vCetH4J:https://www.beckmancoulter.com/wsrportal/techdocs%3Fdocname%3D/cis/BAOSR6x93%2525%2525/EN_LACTATE_BAOSR6x93_US.doc+&cd=2&hl=en&ct=clnk&gl=us), incorporated by reference in its entirety.

[3] = tested on: bromodomains of the BET family; settings: Bres et al. 2008; cited from earlier work

LDH levels [2] | Compound | CD11b levels following the off-drug segment (C2D1) ([1]; NMC patient 004-001) | effectiveness by C2D1 ([1]; NMC patient 004-001, suggested by CD11b increase, patient died shortly thereafter) | decrease of CD11b levels relative to baseline value ([1]; all 6 patients, 0.45 mg/kg SC Days 1-21 of 28-day cycle, by C1D15 vs pre-dose C1D1) | CD11b levels at start of second cycle (C2D1) ([1]; all patients except NMC patient 004-001, after 21 days on-drug and 7 days off-drug) | CD11b levels ([1]; non-NMC patient 002-021 (FIG. 2B)) | binding to bromodomains of the BET family [3]
remained constant | Cc1sc2c(c1C)C(c1ccc(Cl)cc1)=N[C@@H](CC(=O)NCCCN1CCN(C)CC1)c1nnc(C)n1-2 [TEN-010] | dramatically increased | not effective | at least 50% | held steady | significant rise | –
– | Cc1sc2c(c1C)C(c1ccc(Cl)cc1)=N[C@@H](CC(=O)OC(C)(C)C)c1nnc(C)n1-2 [JQ1] | – | – | – | – | – | specifically binds
